Our source for the Activity values is ChEMBL document CHEMBL1156257, “Antibacterial effect of some benzopyrone derivatives” (2010).

Holding throughout (format): functional
Assay [1] concerns Escherichia coli. In words: Antibacterial activity against Escherichia coli XL-1 blue assessed as decrease in survival at 50 x 10^-6 M by turbidimetric method.
The test system of assay [2] is Staphylococcus capitis. In words: Antibacterial activity against Staphylococcus capitis ATCC 2784 assessed as decrease in survival at 50 x 10^-6 M by turbidimetric method.
Assay [3] has as its system Staphylococcus capitis. As to the kind of experiment: Antibacterial activity against Staphylococcus capitis ATCC 2784 assessed as decrease in survival at 0.5 M by turbidimetric method.
Assay [4] relates to Staphylococcus capitis. As to the kind of experiment: Antibacterial activity against Staphylococcus capitis ATCC 2784 assessed as decrease in survival at 1.3 M by turbidimetric method.

On to `Cc1cc(=O)c2c(O)c(/C=N/CCC/N=C/c3c(O)cc4oc(C)cc(=O)c4c3O)c(O)cc2o1`, for which the Activity in assay [1] is reported as 35%; in assay [2], 70%.
The like results for `COc1c(/C=N/CC/N=C/c2c(O)cc3oc(C)cc(=O)c3c2OC)c(O)cc2oc(C)cc(=O)c12` were, in that order, 54% and 40%.
Regarding `COc1c(/C=N/CCC/N=C/c2c(O)cc3oc(C)cc(=O)c3c2OC)c(O)cc2oc(C)cc(=O)c12`, the Activity in assay [1] is given as 30%; in assay [2] it was 55%.
On to `Cc1cc(=O)c2c(O)c(/C=N/CC/N=C/c3c(O)cc4oc(C)cc(=O)c4c3O)c(O)cc2o1`, for which the Activity in assay [1] came out at 60%; in assay [2], 50%.
With `CN(C)C=O` [DIMETHYLFORMAMIDE], the figures for the Activity in assay [3] and in assay [4] were 10% and 80%, respectively.
